Paper PMC8252726, “Automated Glycan Assembly of ^19F‐labeled Glycan Probes Enables High‐Throughput NMR Studies of Protein–Glycan Interactions” (Angewandte Chemie (International Ed. in English), 2021)

How the values were obtained:
LecB = biological target: T1, LecB (Pseudomonas aeruginosa, UniProt Q9HYN5); assay: […] and CPMG NMR screening; assay type: binding; conditions: fucosylated F-glycans as a group
T1 construct: soluble lectin

BambL = biological target: T2, BambL (Burkholderia ambifaria, UniProt Q0B4G1); assay: […] NMR titration (ligand-observed); assay type: binding
T2 construct: gene Bamb_5415; soluble lectin; 15N-labeled for TROSY

Pdα26ST = biological target: T3, Pdα26ST (Photobacterium damselae, UniProt O66375); assay: CPMG […] NMR screening; assay type: binding; conditions: without donor CMP-Neu5Ac
T3 construct: gene bst
T3 sequence (O66375 16-675): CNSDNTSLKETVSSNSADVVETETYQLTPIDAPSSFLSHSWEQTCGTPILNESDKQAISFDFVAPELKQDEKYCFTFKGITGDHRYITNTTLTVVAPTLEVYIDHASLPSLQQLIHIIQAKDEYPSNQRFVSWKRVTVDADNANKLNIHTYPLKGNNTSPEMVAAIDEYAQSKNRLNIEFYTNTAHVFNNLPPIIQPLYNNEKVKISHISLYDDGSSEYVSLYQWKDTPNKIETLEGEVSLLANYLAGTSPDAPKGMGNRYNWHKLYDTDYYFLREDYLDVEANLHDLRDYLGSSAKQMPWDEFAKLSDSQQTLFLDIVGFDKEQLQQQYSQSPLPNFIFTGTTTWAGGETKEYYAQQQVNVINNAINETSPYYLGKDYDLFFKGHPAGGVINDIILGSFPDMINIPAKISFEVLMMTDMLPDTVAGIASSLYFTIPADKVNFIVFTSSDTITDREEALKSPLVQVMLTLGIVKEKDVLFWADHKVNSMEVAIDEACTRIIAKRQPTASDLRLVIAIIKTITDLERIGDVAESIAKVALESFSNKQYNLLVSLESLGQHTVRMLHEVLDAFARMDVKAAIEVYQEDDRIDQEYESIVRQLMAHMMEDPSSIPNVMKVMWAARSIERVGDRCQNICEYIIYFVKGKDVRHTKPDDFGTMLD

β‐galactosidase = assay: real-time […] NMR of product formation; assay type: biochemical; conditions: Henry-Michaelis-Menten fit
Pmα23ST = biological target: T4, Pmα23ST (Pasteurella multocida, UniProt Q15KI8); assay: CPMG […] NMR screening; assay type: binding; conditions: without donor; also sialylated with CMP-Neu5Ac
T4 construct: gene Pm0188
T4 sequence (Q15KI8 26-412): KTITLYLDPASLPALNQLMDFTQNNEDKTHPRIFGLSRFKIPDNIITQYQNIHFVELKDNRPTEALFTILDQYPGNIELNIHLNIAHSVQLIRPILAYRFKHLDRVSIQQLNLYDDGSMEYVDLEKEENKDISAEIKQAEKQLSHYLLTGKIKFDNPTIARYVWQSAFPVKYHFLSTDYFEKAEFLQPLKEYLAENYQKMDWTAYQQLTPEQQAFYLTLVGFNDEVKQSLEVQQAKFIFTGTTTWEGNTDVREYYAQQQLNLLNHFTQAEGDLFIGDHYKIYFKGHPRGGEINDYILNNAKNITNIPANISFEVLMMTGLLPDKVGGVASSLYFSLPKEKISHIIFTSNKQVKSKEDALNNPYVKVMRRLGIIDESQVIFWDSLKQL

T2 sequence (Q0B4G1 entry or part of it): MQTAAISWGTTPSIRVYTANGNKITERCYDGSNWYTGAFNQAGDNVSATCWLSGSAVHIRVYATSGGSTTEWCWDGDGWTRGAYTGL
T1 sequence (Q9HYN5 entry or part of it): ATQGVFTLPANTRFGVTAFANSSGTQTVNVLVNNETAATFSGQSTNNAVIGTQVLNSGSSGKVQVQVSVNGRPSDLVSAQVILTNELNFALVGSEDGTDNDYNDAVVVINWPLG

CC(=O)N[C@H]1[C@H](O[C@H]2[C@@H](O)[C@@H](CO)O[C@@H](O[C@H]3[C@H](F)[C@@H](O)[C@H](OCCCCCN)O[C@@H]3CO)[C@@H]2O)O[C@H](CO)[C@@H](O[C@@H]2O[C@H](CO)[C@H](O)[C@H](O)[C@H]2O[C@@H]2O[C@@H](C)[C@@H](O)[C@@H](O)[C@@H]2O)[C@@H]1O [F‐H type 2]
19F and CPMG NMR screening (LecB): bacterial (LecA, LecB, and BambL) and mammalian (DC‐SIGN ECD) lectins preferred fucosylated glycans | Kd (BambL): 9 ± 2 µM

NCCCCCO[C@@H]1O[C@H](CO)[C@@H](O[C@@H]2O[C@H](CO)[C@H](O)[C@H](O)[C@H]2O)[C@H](F)[C@H]1O [F‐Lac]
CPMG 19F NMR screening (Pdα26ST): Shorter non‐branched glycans (F‐Lac and F‐nLac4) showed stronger binding than longer branched ones | Km (β‐galactosidase): 86.5 ± 10.5 µM

CC(=O)N[C@H]1[C@H](O[C@H]2[C@@H](O)[C@@H](CO)O[C@@H](O[C@H]3[C@H](F)[C@@H](O)[C@H](OCCCCCN)O[C@@H]3CO)[C@@H]2O)O[C@H](CO)[C@@H](O[C@@H]2O[C@H](CO)[C@H](O)[C@H](O)[C@H]2O[C@@H]2O[C@@H](C)[C@@H](O)[C@@H](O)[C@@H]2O)[C@@H]1O[C@@H]1O[C@@H](C)[C@@H](O)[C@@H](O)[C@@H]1O [F‐Le^y]
Kd (BambL): 14 ± 2 µM

CC(=O)N[C@H]1[C@H](O[C@H]2[C@@H](O)[C@@H](CO)O[C@@H](O[C@H]3[C@H](F)[C@@H](O)[C@H](OCCCCCN)O[C@@H]3CO)[C@@H]2O)O[C@H](CO)[C@@H](O[C@@H]2O[C@H](CO)[C@H](O)[C@H](O)[C@H]2O)[C@@H]1O [F‐nLac4]
CPMG 19F NMR screening (Pmα23ST): Shorter non‐branched glycans (F‐Lac and F‐nLac4) showed stronger binding than longer branched ones | CPMG 19F NMR screening (Pdα26ST): Shorter non‐branched glycans (F‐Lac and F‐nLac4) showed stronger binding than longer branched ones
